According to US8614203B2, “Methods for the treatment of a central nervous system injury via a tapered administration protocol” (Emory University, priority 2005, dated 2013):

Assays:
GFAP = type: in vivo; conditions: acute withdrawal, lesion (AWL) vs VL; three weeks post-injury
Excerpt: (§1) 60 male Sprague-Dawley rats weighing 290-310 g at the time of injury were used in this experiment. Food and water were provided ad libidum before and after surgery. Animals were handled and weighed daily from their arrival, seven days pre-surgery, to brain extraction three weeks post-surgery. Animals were handled in squads of 12, with n=10 per experimental condition. All animal procedures were approved by the Emory University Animal Care and Use Committee, Protocol #131-2002.
Isofluorane anesthesia was induced for four minutes and 45 seconds at 5% and maintained at 2.5%. Normal body temperature was maintained with a surgical heating pad placed beneath the sterile dressings. The scalp incision area was shaved and sterilized with iodine and isopropanol. A midline incision was made along the scalp and the fascia cleared to expose the surface of the skull. Medial, lateral, and dorsal stereotaxic coordinates were determined at bregma, and a 5-7 mm diameter bilateral craniotomy was performed mid-sagitally, 3 mm anterior to bregma. […]
All animals were decapitated following a lethal 1 mL injection of Nembutal at three weeks post-injury. […] Thionin-stained sections from 4.2-2.2 mm anterior to bregma were identified and analyzed for lesion area using Kodak ID software. Total brain area was determined by determined by normalizing to the volume of sham brain sections. […]

BDNF = assay: Example 4: Western blotting densitometry, BDNF; type: in vivo, Sprague-Dawley rats
Excerpt: as §1
Isofluorane anesthesia was induced for four minutes and 45 seconds at 5% and maintained at 2.5%. Normal body temperature was maintained with a surgical heating pad placed beneath the sterile dressings. The scalp incision area was shaved and sterilized with iodine and isopropanol. A midline incision was made along the scalp and the fascia cleared to expose the surface of the skull. Medial, lateral, and dorsal stereotaxic coordinates were determined at bregma, and a 5-7 mm diameter bilateral craniotomy was performed mid-sagitally, 3 mm anterior to bregma. […] Sutures were used to close the incision after bleeding ceased. Animals were placed in individual heated, clean recovery cages until they awakened, and were returned to clean individual home cages with accessible moistened food pellets. Sham animals were anesthetized, and an incision was made at the top of the head. The fascia was cleared to expose bregma, then the incision was sutured closed. Sham surgeries were matched to lesion surgeries for all experimental conditions.
Sham (S) and lesion (L) animals were randomly assigned to one of three treatment groups: vehicle (VS, VL), acute withdrawal (AWS, AWL), and tapered withdrawal (TWS, TWL). […] Tapering was induced as halved dosages over the last two days of treatment. Dilutions for TW treatments were made with HBC stock. […]
Brains for protein analysis were sectioned into the immediate area of the lesion and snap frozen in 2-methyl-butane chilled on dry ice. […] The amount of brain homogenate needed to standardize samples to 2 μg/μL for Western blotting was calculated from the results of these assays. […]

With `CC(=O)[C@H]1CC[C@H]2[C@@H]3CCC4=CC(=O)CC[C@]4(C)[C@H]3CC[C@]12C` [progesterone, pregn-4-ene-3,20-dione] the “GFAP immunofluorescence luminosity (reactive astrocytes)” value (GFAP) was “upregulated in VL (A) animals over AWL (B) animals”, the BDNF levels (BDNF; acute withdrawal, lesion (AWL) vs VL, three weeks post-injury) was “AWL over VL” and the BDNF levels (BDNF; sham animals (AWS, TWS, VS)) was “Sham animals did not display any differences between treatment groups”. The BDNF levels (BDNF; tapered withdrawal, lesion (TWL) vs AWL, three weeks post-injury) was “increase in BDNF levels for TWL over AWL”.
